The values below come from patent US6977262B2, “Dihydropyrazolopyridine compounds and pharmaceutical use thereof” (Mitsubishi Pharma Corporation, priority 2001, dated 2005).

A word on the melting point: it is the temperature of the solid-liquid transition.

`CCCC1=C([N+](=O)[O-])C(c2cccc3ccccc23)c2c[nH]nc2N1` (stereo not drawn) [Example 123, 4,7-Dihydro-4-(naphthalen-1-yl)-5-nitro-6-propyl-2H-pyrazolo[3,4-b]pyridine] had a melting point of 226 °C.
Compound `CCCC1=C(C#N)C(c2ccccc2Cl)c2cnn(C(=O)Nc3ccccc3)c2N1` (stereo not drawn) [Example 283, 4-(2-Chlorophenyl)-5-cyano-4,7-dihydro-1-phenylcarbamoyl-6-propyl-1 H-pyrazolo[3,4-b]pyridine] had a melting point of 138 to 140 °C.
In the case of `CCOC(=O)C1=C(C)Nc2n[nH]cc2C1c1cccc2nonc12` (stereo not drawn) [Example 113, Ethyl 4-(2,1,3-benzoxadiazol-4-yl)-4,7-dihydro-6-methyl-2H-pyrazolo[3,4-b]pyridine-5-carboxylate] it was 228 °C.
With `CCCC1=C(C(=O)OCC)C(c2cccc(C(F)(F)F)c2Cl)c2c[nH]nc2N1` (stereo not drawn) [Example 47, Ethyl 4-(2-chloro-3-trifluoromethylphenyl)-4,7-dihydro-6-propyl-2H-pyrazolo[3,4-b]pyridine-5-carboxylate], the melting point fell in the range of 236 to 238 °C.
In the case of `CCCC1=C(C#N)[C@H](c2cccc3nonc23)c2c[nH]nc2N1` [Example 140, R(−) 4-(2,1,3-Benzoxadiazol-4-yl)-5-cyano-4,7-dihydro-6-propyl-2H-pyrazolo[3,4-b]pyridine] it was 170 °C.
The result for `N#CC1=C(c2cccs2)Nc2n[nH]cc2C1c1cccc2nonc12` (stereo not drawn) [Example 171, 4-(2,1,3-Benzoxadiazol-4-yl)-5-cyano-4,7-dihydro-6-(thiophen-2-yl)-2H-pyrazolo[3,4-b]pyridine] reads 230 °C; that for `CCCC1=C(C#N)C(c2cccc(C(F)(F)F)c2Cl)c2c[nH]nc2N1` (stereo not drawn) [Example 201, 4-(2-Chloro-3-trifluoromethylphenyl)-5-cyano-4,7-dihydro-6-propyl-2H-pyrazolo[3,4-b]pyridine], more than 250 °C; that for `CCCC1=C(C(=O)OCC)C(c2cc(OC)ccc2Cl)c2c[nH]nc2N1` (stereo not drawn) [Example 52, Ethyl 4-(2-chloro-5-methoxyphenyl)-4,7-dihydro-6-propyl-2H-pyrazolo[3,4-b]pyridine-5-carboxylate], 182 °C.
`CCCC1=C(C#N)C(c2ccccc2Cl)c2c(n[nH]c2-c2ccc3ccccc3c2)N1` (stereo not drawn) [Example 301, 4-(2-Chlorophenyl)-5-cyano-4,7-dihydro-3-(naphthalen-2-yl)-6-propyl-2H-pyrazolo[3,4-b]pyridine] registered a melting point of more than 270 °C.
As to `CC(C)(C)OC(=O)N1CCC(C2=C(C#N)C(c3ccccc3Cl)c3c[nH]nc3N2)CC1` (stereo not drawn) [Example 1054, 6-(1-t-Butoxycarbonylpiperidin-4-yl)-4-(2-chlorophenyl)-5-cyano-4,7-dihydro-2H-pyrazolo[3,4-b]pyridine], the melting point was more than 280 °C.
Regarding `CCCN1CCC(C2=C(C#N)C(c3cccc4nonc34)c3c[nH]nc3N2)CC1` (stereo not drawn) [Example 1034, 4-(2,1,3-Benzoxadiazol-4-yl)-5-cyano-4,7-dihydro-6-(1-propylpiperidin-4-yl)-2H-pyrazolo[3,4-b]pyridine], the melting point was 246 °C.
`CCCCC1=C([N+](=O)[O-])C(c2cccc(Cl)c2Cl)c2c[nH]nc2N1` (stereo not drawn) [Example 127, 6-Butyl-4-(2,3-dichlorophenyl)-4,7-dihydro-5-nitro-2H-pyrazolo[3,4-b]pyridine] registered a melting point of 220 °C.
In the case of `CCOC(=O)C1=C(C(F)(F)F)Nc2n[nH]cc2C1c1cccs1` (stereo not drawn) [Example 22, Ethyl 4,7-dihydro-4-(thiophen-2-yl)-6-trifluoromethyl-2H-pyrazolo[3,4-b]pyridine-5-carboxylate] it was 157 to 161 °C.
The result for `COc1ccc(C2=C(C#N)C(c3cccc4nsnc34)c3c[nH]nc3N2)cc1` (stereo not drawn) [Example 165, 4-(2,1,3-Benzothiadiazol-4-yl)-5-cyano-4,7-dihydro-6-(4-methoxyphenyl)-2H-pyrazolo[3,4-b]pyridine] reads 238 °C; that for `CC(C)(C)OC(=O)n1cc(C2=C(C#N)C(c3cccc4nonc34)c3c[nH]nc3N2)c2ccccc21` (stereo not drawn) [Example 334, 4-(2,1,3-Benzoxadiazol-4-yl)-5-cyano-6-(1-t-butoxycarbonylindol-3-yl)-4,7-dihydro-2H-pyrazolo[3,4-b]pyridine], 202 °C.
`CCCC1=C(C(=O)OCC)C(c2ccccc2OCC)c2c[nH]nc2N1` (stereo not drawn) [Example 33, Ethyl 4-(2-ethoxyphenyl)-4,7-dihydro-6-propyl-2H-pyrazolo[3,4-b]pyridine-5-carboxylate] gave a melting point of 203 °C.
The result for `CCCC1=C(C(=O)OCC)C(c2ccccc2Cl)c2cn(C(=O)Oc3ccccc3)nc2N1` (stereo not drawn) [Example 218, Ethyl 4-(2-chlorophenyl)-4,7-dihydro-2-phenoxycarbonyl-6-propyl-2H-pyrazolo[3,4-b]pyridine-5-carboxylate] reads 156 to 157 °C; that for `CCCC1=C(C(=O)OCC)C(c2ccoc2C)c2c[nH]nc2N1` (stereo not drawn) [Example 61, Ethyl 4,7-dihydro-4-(2-methylfuran-3-yl)-6-propyl-2H-pyrazolo[3,4-b]pyridine-5-carboxylate], 123 to 125 °C.
The result for `CCCCC1=C(C(=O)OCC)C(c2ccccc2OC)c2c[nH]nc2N1` (stereo not drawn) [Example 90, Ethyl 6-butyl-4,7-dihydro-4-(2-methoxyphenyl)-2H-pyrazolo[3,4-b]pyridine-5-carboxylate] reads 190 °C; that for `CCCOC(=O)n1cc2c(n1)NC(CCC)=C(C(=O)OCC)C2c1ccccc1Cl` (stereo not drawn) [Example 222, Ethyl 4-(2-chlorophenyl)-4,7-dihydro-2-propoxycarbonyl-6-propyl-2H-pyrazolo[3,4-b]pyridine-5-carboxylate], 59 °C; that for `N#CC1=C(c2ccco2)Nc2n[nH]cc2C1c1cccc2nonc12` (stereo not drawn) [Example 170, 4-(2,1,3-Benzoxadiazol-4-yl)-5-cyano-6-(furan-2-yl)-4,7-dihydro-2H-pyrazolo[3,4-b]pyridine], 241 °C.
In the case of `CCCC1=C(c2ccccn2)C(c2cccc(C#N)c2Br)c2c[nH]nc2N1` (stereo not drawn) [Example 1084, 4-(2-Bromo-3-cyanophenyl)-5-(pyridin-2-yl)-4,7-dihydro-6-propyl-2H-pyrazolo[3,4-b]pyridine] it was 205 to 208 °C (dec.); in that of `N#CC1=C(C2CC2)Nc2n[nH]cc2C1c1cccc2nonc12` (stereo not drawn) [Example 269, 4-(2,1,3-Benzoxadiazol-4-yl)-5-cyano-6-cyclopropyl-4,7-dihydro-2H-pyrazolo[3,4-b]pyridine], 200 to 201 °C (dec.).
The compound `CCOC(=O)C1=C(Cc2ccccc2)Nc2n[nH]cc2C1c1ccccc1Cl` (stereo not drawn) [Example 88, Ethyl 6-benzyl-4-(2-chlorophenyl)-4,7-dihydro-2H-pyrazolo[3,4-b]pyridine-5-carboxylate] registered a melting point of 247 °C.
In the case of `CCCC1=C(C(=O)OCC)C(c2cccc(Cl)c2Cl)c2c[nH]nc2N1` (stereo not drawn) [Example 44, Ethyl 4-(2,3-dichlorophenyl)-4,7-dihydro-6-propyl-2H-pyrazolo[3,4-b]pyridine-5-carboxylate] it was 220 °C; in that of `CCCC1=C(C#N)C(c2cccc(Cl)c2Cl)c2c[nH]nc2N1` (stereo not drawn) [Example 134, 5-Cyano-4-(2,3-dichlorophenyl)-4,7-dihydro-6-propyl-2H-pyrazolo[3,4-b]pyridine], 242 °C; in that of `N#CC1=C(c2ccccc2)Nc2n[nH]cc2C1c1cccc2nonc12` (stereo not drawn) [Example 158, 4-(2,1,3-Benzoxadiazol-4-yl)-5-cyano-4,7-dihydro-6-phenyl-2H-pyrazolo[3,4-b]pyridine], 231 °C.
On to `CCCC1=C(C#N)C(c2ccccc2Cl)c2cn(C(=O)OC(C)(C)C)nc2N1` (stereo not drawn) [Example 282, 2-tert-Butoxycarbonyl-4-(2-chlorophenyl)-5-cyano-4,7-dihydro-6-propyl-2H-pyrazolo[3,4-b]pyridine], for which the melting point was 175 °C (dec.).
In the case of `CCCC1=C(C#N)C(c2cccc(C)c2[N+](=O)[O-])c2c[nH]nc2N1` (stereo not drawn) [Example 338, 5-Cyano-4,7-dihydro-4-(3-methyl-2-nitrophenyl)-6-propyl-2H-pyrazolo[3,4-b]pyridine] it was 250 °C.
In the case of `CCCC1=C(C(=O)OCC)C(c2ccccc2Cl)c2cnn(C(=O)c3ccccc3)c2N1` (stereo not drawn) [Example 210, Ethyl 1-benzoyl-4-(2-chlorophenyl)-4,7-dihydro-6-propyl-1H-pyrazolo[3,4-b]pyridine-5-carboxylate] it was 115 °C.
The result for `CCCC1=C(C(=O)OCC)C(c2ccccc2[N+](=O)[O-])c2c[nH]nc2N1` (stereo not drawn) [Example 41, Ethyl 4,7-dihydro-4-(2-nitrophenyl)-6-propyl-2H-pyrazolo[3,4-b]pyridine-5-carboxylate] reads 218 °C; that for `N#CC1=C(C2CCCC2)Nc2n[nH]cc2C1c1cccc2nonc12` (stereo not drawn) [Example 318, 4-(2,1,3-Benzoxadiazol-4-yl)-5-cyano-6-cyclopentyl-4,7-dihydro-2H-pyrazolo[3,4-b]pyridine], 193 °C.
In turn, `CCCCC1=C(C(=O)OCC)C(c2ccccc2Cl)c2c[nH]nc2N1` (stereo not drawn) [Example 83, Ethyl 6-butyl-4-(2-chlorophenyl)-4,7-dihydro-2H-pyrazolo[3,4-b]pyridine-5-carboxylate] had a melting point of 209 °C.
The result for `CCCC1=C([N+](=O)[O-])C(c2ccccc2OC)c2c[nH]nc2N1` (stereo not drawn) [Example 119, 4,7-Dihydro-4-(2-methoxyphenyl)-5-nitro-6-propyl-2H-pyrazolo[3,4-b]pyridine] reads 223 °C.
The result for `CCCC1=C(C(=O)OCC)C(c2ccccc2OC(C)C)c2c[nH]nc2N1` (stereo not drawn) [Example 35, Ethyl 4,7-dihydro-4-(2-isopropyloxyphenyl)-6-propyl-2H-pyrazolo[3,4-b]pyridine-5-carboxylate] reads 210 °C; that for `CCCC1=C(C(=O)OCC)C(c2cccc3ccsc23)c2c[nH]nc2N1` (stereo not drawn) [Example 106, Ethyl 4-(benzo[b]thiophen-7-yl)-4,7-dihydro-6-propyl-2H-pyrazolo[3,4-b]pyridine-5-carboxylate], 166 °C.
